# Entries after “also recorded” stand apart in the source; their conditions may differ. Read-outs that look alike come from different tables or passages of the source.
# Columns and labels:
# [1] = tested on: post-hypoxic myoclonus (auditory stimulus-induced myoclonic jerks); experiment: rat cardiac arrest model of post-hypoxic myoclonus; assay type: in vivo, male Sprague-Dawley rats; conditions: ip at 10, 30, 100 and 300 mg/kg, 48 hours after cardiac arrest; myoclonus score over 3 hours
# Experimental: Brivaracetam is evaluated in a rat model of post-hypoxic myoclonus [Truong et al. (1994) Novel rat cardiac arrest model of post-hypoxic myoclonus. Mov. Disord. 9:201-206]. In this model, male Sprague-Dawley rats are subjected to mechanical-induced cardiac arrest for a short duration of time during which cerebral hypoxic insults are induced.
# All surgical procedures are performed under deep anaesthesia (ketamine 85 mg/kg ip and xylazine 15 mg/kg ip). The cardiac arrest is initiated and maintained for a duration of 8 minutes by mechanically obstructing all the major cardiac blood vessels including the aorta by hooking up the vessels with an L-shaped loop inserted into the rat body cavity. […]
# These animals show jerking movements in response to auditory stimuli and other features of myoclonus that are similar to those observed in human condition. […] The involuntary muscle jerks in response to each stimulus are scored as follows: 0=no jerks; 1=ear twitch; 2=ear and body jerk; 3=ear, head and shoulder jerk; 4=whole body jerk; and 5=whole body jerk with jumping.
# Antimyoclonic activity of Brivaracetam, administered ip at 10, 30, 100 and 300 mg/kg, is evaluated 48 hours after the cardiac arrest. The myoclonus score is recorded at 30 min interval over a period of 3 hours after dosing, in groups of 6 rats per dose.
# [2] = tested on: maximal electroshock seizures (MES); experiment: maximal electroshock seizures (MES) in mice; assay type: in vivo, male NMRI mice; conditions: i.p. -30 min, 95% confidence interval in parentheses
# Experimental: (§1) The effect of Brivaracetam against maximal electroshock seizures (MES) and pentylenetetrazol (PTZ) seizures is evaluated in male NMRI mice (20-30 g; N=10 per group). MES is induced through corneal electrodes delivering a current of 50 mA for a duration 0.2 s inducing tonic hind limb extension in 100% of saline-treated animals.
# (§2) PTZ is administered at a dose of 89 mg/kg s.c. which represents a dose inducing clonic convulsions of all four extremities in 97% of saline-treated animals. The mice are pre-treated with either saline or different doses of Brivaracetam (i.p. adm., −30 min.) and the proportion of mice protected against seizures is recorded.
# [3] = tested on: pentylenetetrazol (PTZ) seizures; experiment: pentylenetetrazol (PTZ) seizures in mice; assay type: in vivo, male NMRI mice; conditions: PTZ 89 mg/kg s.c., i.p. -30 min, 95% confidence interval in parentheses
# Experimental: as §1, §2
# audiogenic seizures = audiogenic seizures in sound-sensitive mice; assay type: in vivo, male genetically sound-sensitive mice; conditions: i.p. -30 min, 95% confidence interval in parentheses
# Experimental: Brivaracetam is tested in male genetically sound-sensitive mice (16-28 g; N=10 per group) responding with wild running, clonic and tonic convulsions to an acoustic stimulation. Audiogenic seizures are induced by an acoustic stimulus (90 dB, 10-20 kHz) applied for 30 s. The mice are pre-treated with either saline or different doses of Brivaracetam (i.p. adm., −30 min.) and the proportion of mice protected against both clonic and tonic convulsions is used as the end point to assess anticonvulsant activity.
# kindled seizures = experiment: amygdala kindling in rats; assay type: in vivo, male Sprague-Dawley rats; conditions: i.p. -60 min, 95% confidence interval in parentheses
# Experimental: The effect of brivaracetam on kindled seizures is evaluated in male Sprague-Dawley rats (250-350 g) implanted with a bipolar stimulation/recording electrode into the right basolateral amygdala [AP-2.3, L-4.8, V-8.5 (Paxinos and Watson, 1982)], under pentobarbital anaesthesia. Kindling is induced by once daily stimulation, 5 days per week, with 500 μA monophasic square wave pulses, 50 Hz for 1 s (Löscher et al., 1986). The animals are considered kindled after the appearance of at least 10 consecutive stage 4 or 5 seizures according to the scale of Racine (Racine, 1972). Fully kindled rats (N=8 per group) are stimulated once with the same stimulation parameters as above after administration of saline (i.p., −60 min).
# This procedure is repeated two days later, after pre-treatment with either saline or different doses of Brivaracetam (i.p., −60 min).
# The behavioural effect of stimulation is graded according to the scale of Racine and the proportion of rats protected against generalised motor seizures (stage <3) is recorded.
# [4] = tested on: spontaneous spike-and-wave discharges (SWDs); experiment: spike-and-wave discharges in Genetic Absence Epilepsy Rats from Strasbourg; assay type: in vivo, male rats from the Genetic Absence Epilepsy Rat Strain; conditions: 95% confidence interval in parentheses
# Experimental: Male rats from the Genetic Absence Epilepsy Rat Strain are implanted with four platinum electrodes into the left and right frontal cortex and left and right occipital cortex, under pentobarbital anaesthesia. Cortical, spontaneous spike-and-wave discharges (SWDs) are recorded bilaterally from the rats placed into Plexiglass boxes, and prevented for falling asleep by gentle sensory stimulation. After a 20-min habituation period, the rats are injected i.p. with either saline or different doses of Brivaracetam and the EEG recorded continuously over consecutive 20-min intervals up to 120 min. The cumulative duration of the SWDs is calculated.
# DMCM-induced seizures = experiment: threshold for DMCM-induced seizures in mice; assay type: in vivo, male NMRI mice; conditions: for Clonic convulsion DMCM threshold dose / First myoclonic jerks DMCM threshold dose: mean ± S.D.
# Experimental: The effect of Brivaracetam on the threshold for DMCM-induced seizures is evaluated in male NMRI mice (25-35 g; N=10 per group). The threshold for induction of myoclonic jerks and clonic convulsions in all four extremities is determined by infusing a concentration of 0.5 mg/ml DMCM into the tail vein of unrestrained freely moving mice at a rate of 0.25 ml/min with an infusion pump and a maximum duration of infusion of 2 min. Saline or different doses of Brivaracetam are administered 30 min before DMCM infusion.
# [5] = tested on: photoparoxysmal EEG response (PPR); experiment: photoparoxysmal EEG response (PPR) study in photosensitive epileptic subjects; assay type: in vivo, human (Caucasian subjects with photosensitive epilepsy); conditions: for Duration of response, Median (Range) / Time to first response, Median (Range): eye-closure condition, response = SPR change of at least 3 frequency steps
# Experimental: (§3) The aim of the placebo-controlled, single blind, multi-centre study is to explore the photoparoxysmal EEG (Electroencephalogram) response (PPR) in photosensitive epileptic subjects after one single oral dose (10, 20, 40 and 80 mg) of brivaracetam (BRV).
# (§4) In the study, nineteen Caucasian subjects with photosensitive epilepsy (15 females, 4 males) with stable PPR in at least one eye condition (eyes open, eyes closed, eye closure) are enrolled. During a 3-day period, subjects underwent standardized intermittent photic stimulation (IPS) at different frequencies to define the standard photosensitivity range (SPR) in frequency steps per subject at fixed time points over the day: predose (−0.5 h) and postdose (1, 2, 4, 6, 8, 24, 28, 32, 48, and 72 h). After the placebo baseline day (day 1), single oral doses of BRV are given, starting at 80 mg, with subsequent lowering or increasing of the dose depending on the results per 4 subjects.
# A total of 18 subjects are evaluable. One subject appeared to be no longer sensitive on the baseline day and is therefore not evaluable. Under placebo administration almost no SPR changes from pre-dose in “eye-closure” condition are observed. Important SPR changes or even complete abolishment of the photosensitivity windows are observed after BRV administration at all tested doses.
# Descriptive statistics (N, Median (range)) for time to first response and duration of response in “eye-closure” condition are given in the Table 3 below. Response is defined as a SPR change of at least 3 frequency steps.
# [6] = plasma levels of brivaracetam in the PPR study; assay type: in vivo; conditions: human
# Experimental: as §3, §4
# Median time to first response is 0.5 hours for all doses, and median duration of response is approximately 28 hours after 10, 20, or 40 mg BRV. The median duration is longer after 80 mg BRV (59.5 h). Time to maximal reduction in SPR is dose related: 1.5, 1.0, 1.0, and 0.5 hours, respectively, for 10, 20, 40, and 80 mg BRV. Plasma levels of brivaracetam (BRV) reach a peak at approximately 2.0 hours. T1/2 is about 8.5 hours. Effect of BRV is still frequently observable with BRV plasma levels below the lower level of quantification.
# epilepsy = conditions: A. J. Gower et al., Eur. J. Pharmacol., 222, (1992), 193-203; cited from earlier work
# [7] = 80 mg single oral dose, listed as BRV
# [8] = all single doses (10, 20, 40, and 80 mg)
compound,measurement,setting,value
"CCC[C@@H]1CC(=O)N([C@@H](CC)C(N)=O)C1 [Brivaracetam, (2S)-2-[(4R)-2-oxo-4-propylpyrrolidinyl]butanamide]",Antimyoclonic activity,[1],active
same,"Protective effect ED50 value, tonic hind limb extension",[2],113 (89-136) mg/kg i.p.
same,"Protective effect ED50 value, clonic convulsions",[3],30 (10-87) mg/kg i.p.
same,"Protective effect ED50 value, clonic convulsions",audiogenic seizures,2.4 (1.4-4.0) mg/kg i.p.
same,"Protective effect ED50 value, tonic convulsions",audiogenic seizures,1.4 (0.9-2.1) mg/kg i.p.
same,"Protective effect ED50 value, secondary generalised seizures",kindled seizures,44 (24-84) mg/kg i.p.
same,"Protective effect ED50 value, duration of spike-and-wave discharges over 2 hours",[4],2.6 (0.85-8.1) mg/kg i.p.
same,"Clonic convulsion DMCM threshold, change vs control",DMCM-induced seizures; Brivaracetam 2.1 mg/kg IP,+46%
same,"First myoclonic jerks DMCM threshold, change vs control",DMCM-induced seizures; Brivaracetam 2.1 mg/kg IP,+6%
same,Clonic convulsion DMCM threshold dose,DMCM-induced seizures; Brivaracetam 2.1 mg/kg IP,3.34 ± 0.93 mg/kg
same,First myoclonic jerks DMCM threshold dose,DMCM-induced seizures; Brivaracetam 2.1 mg/kg IP,1.05 ± 0.14 mg/kg
same,"Clonic convulsion DMCM threshold, change vs control",DMCM-induced seizures; Brivaracetam 6.8 mg/kg IP,+104%
same,"First myoclonic jerks DMCM threshold, change vs control",DMCM-induced seizures; Brivaracetam 6.8 mg/kg IP,+11%
same,Clonic convulsion DMCM threshold dose,DMCM-induced seizures; Brivaracetam 6.8 mg/kg IP,4.68 ± 2.21 mg/kg
same,First myoclonic jerks DMCM threshold dose,DMCM-induced seizures; Brivaracetam 6.8 mg/kg IP,1.10 ± 0.16 mg/kg
same,"Clonic convulsion DMCM threshold, change vs control",DMCM-induced seizures; Brivaracetam 21.2 mg/kg IP,+183%
same,"First myoclonic jerks DMCM threshold, change vs control",DMCM-induced seizures; Brivaracetam 21.2 mg/kg IP,+26%
same,Clonic convulsion DMCM threshold dose,DMCM-induced seizures; Brivaracetam 21.2 mg/kg IP,6.47 ± 2.82 mg/kg
same,First myoclonic jerks DMCM threshold dose,DMCM-induced seizures; Brivaracetam 21.2 mg/kg IP,1.25 ± 0.14 mg/kg
same,"Clonic convulsion DMCM threshold, change vs control",DMCM-induced seizures; Brivaracetam 67.9 mg/kg IP,+182%
same,"First myoclonic jerks DMCM threshold, change vs control",DMCM-induced seizures; Brivaracetam 67.9 mg/kg IP,+32%
same,Clonic convulsion DMCM threshold dose,DMCM-induced seizures; Brivaracetam 67.9 mg/kg IP,6.46 ± 3.16 mg/kg
same,First myoclonic jerks DMCM threshold dose,DMCM-induced seizures; Brivaracetam 67.9 mg/kg IP,1.31 ± 0.17 mg/kg
same,"Clonic convulsion DMCM threshold, change vs control",DMCM-induced seizures; Brivaracetam 212.3 mg/kg IP,+213%
same,"First myoclonic jerks DMCM threshold, change vs control",DMCM-induced seizures; Brivaracetam 212.3 mg/kg IP,+36%
same,Clonic convulsion DMCM threshold dose,DMCM-induced seizures; Brivaracetam 212.3 mg/kg IP,7.16 ± 2.98 mg/kg
same,First myoclonic jerks DMCM threshold dose,DMCM-induced seizures; Brivaracetam 212.3 mg/kg IP,1.35 ± 0.17 mg/kg
same,Time to maximal reduction in SPR,[5]; 10 mg single oral dose,1.5 h
same,"Duration of response, Median (Range)",[5]; 10 mg single oral dose,29.3 (7.5; 31.5) h
same,"Time to first response, Median (Range)",[5]; 10 mg single oral dose,0.5 (0.5; 1.0) h
same,Patients with abolishment of EEG response,"[5]; 10 mg single oral dose, reduction in the fourth patient",three out of four
same,Time to maximal reduction in SPR,[5]; 20 mg single oral dose,1.0 h
same,"Duration of response, Median (Range)",[5]; 20 mg single oral dose,27.5 (23.0; 31.5) h
same,"Time to first response, Median (Range)",[5]; 20 mg single oral dose,0.5 (0.5; 1.0) h
same,EEG response in all (evaluable) subjects,"[5]; 20 mg single oral dose, listed as BRV",abolished; also recorded: complete suppression
same,Time to maximal reduction in SPR,[5]; 40 mg single oral dose,1.0 h
same,"Duration of response, Median (Range)",[5]; 40 mg single oral dose,27.0 (23.5; 47.5) h
same,"Time to first response, Median (Range)",[5]; 40 mg single oral dose,0.5 (0.5; 1.0) h
same,Time to maximal reduction in SPR,[5]; 80 mg single oral dose,0.5 h
same,"Duration of response, Median (Range)",[5]; 80 mg single oral dose,59.5 (27.5; 71.5) h
same,"Time to first response, Median (Range)",[5]; 80 mg single oral dose,0.5 (0.5; 0.5) h
same,"Duration of response, Median (Range)",[5]; [7],59.5 h
same,EEG response in all (evaluable) subjects,[5]; [7],abolished; also recorded: complete suppression
same,Median duration of response,"[5]; after 10, 20, or 40 mg single oral dose",approximately 28 hours
same,Median time to first response,"[5]; all doses (10, 20, 40, 80 mg single oral dose)",0.5 h
same,Safety and tolerability,"[5]; all doses (10, 20, 40, 80 mg single oral dose), human subjects",safe and well tolerated
same,Subjects with abolished photoparoxysmal EEG response,[5]; [8],78%
same,Subjects with reduced photoparoxysmal EEG response,[5]; [8],94%
same,half-life,"[6]; both sexes, plasma, single oral dose, read-out: T1/2 (converted)",~8.5 h
same,half-life,"[6]; in vivo, stated as basis of expected effect duration, read-out: half-life of the compound (converted)",~7.7 h
same,Time of peak plasma levels,[6]; single oral dose,approximately 2.0 hours
CC[C@H](C(N)=O)N1CCCC1=O [(R)-(+)-α-ethyl-2-oxo-1-pyrrolidine-acetamide],Activity in the treatment of epilepsy,epilepsy,completely devoid of activity

# From US20090131508A1, “Use of 2-Oxo-1-Pyrrolidone Derivatives for the Preparation of a Drug” (UCB PHARMA, S.A., priority 2005, published 2009)
